Reference: patent publication US6518302B1, “Remedies” (Takara Shuzo Co., Ltd., priority 1999, dated 2003)

Columns and labels:
[1] = test system: Human promyelocytic leukemia HL-60 cells; assay: Antiproliferation activity against HL-60 cells (MTT method); assay type: cell-based; details: 48 hour incubation; for IC50: Homo sapiens, HL-60 cells, read-out: IC50, concentration at which 50% of the proliferation is inhibited
Procedure: Human promyelocytic leukemia HL-60 cells (ATCC CCL-240) were cultured at 37° C. in RPMI 1640 medium (Gibco) containing 10% of fetal calf serum (JRH Bioscience) which had been treated at 56° C. for 30 minutes, and suspended in the same medium at a concentration of 5000 cells/90 μl. Each 90 μl portion of the suspension was distributed into each well of a 96-well plate (Falcon). To the suspension in each well was added 10 μl of one the following samples, and incubated at 37° C. in the presence of 5% CO2. The samples were 2-, 4-, 8-, 16-, 32-, 64- or 128-dilutions of filter-sterilized 200 mM aqueous solution of the compound (2) obtained in Example 1, 50 mM aqueous solution of the compound (7), 50 mM aqueous solution of the compound (9), 100 mM aqueous solution of the compound (11), 100 mM aqueous solution of the compound (14), 20 mM aqueous solution of the compound (17), 12.5 mM aqueous solution of the compound (19) or 12.5 mM aqueous solution of the compound (21) with sterile water, as well as water. After 48 hour from the initiation of the incubation, the numbers of viable cells calculated based on the absorbance measured according to the MTT method as described in “Apoptosis Jikken Protocol” (Syuzyun-sha, Seiichi Tanuma, ed., pp. 156 (1994)) were compared each other.

[2] = test system: heme oxygenase 1 protein in RAW264.7 cells; assay: Heme oxygenase 1 induction (Western blot); assay type: cell-based; set-up: key: − represents no band observed; increase in the intensity of the band is represented as follows: +−<+<++; increase in the intensity of the band is represented as follows: +−<+<++; increase in the intensity of the band is represented as follows: +−<+<++; details: 12 hours
Procedure: RAW264.7 cells (ATCC TIB 71) were suspended in Dulbecco's modified Eagle's medium (Bio Whittaker, 12-604F) containing 10% fetal calf serum (Gibco) at a concentration of 3×10^5 cells/ml. 5 ml of the suspension was added to each well of a 6-well microtiter plate and the plate was incubated at 37° C. overnight in the presence of 5% CO2. 50 μl of a solution containing the compound (11) or the compound (14) at a concentration of 10 mM or 5 mM in water, 5 μl of a solution containing the compound (7) at a concentration of 50 mM or 25 mM in dimethyl sulfoxide, or 5 μl of a solution containing the compound (17) at a concentration of 100 mM or 50 mM in dimethyl sulfoxide was added to the well. The plate was incubated for 12 hours. A positive control for heme oxygenase 1 induction in which 5 μl of 3 mM solution of 15-deoxy-Δ12,14 prostaglandin J2 (Cayman Chemical, 18570) in dimethyl sulfoxide was added, and a negative control in which water was added were provided. The cells were recovered by detaching the cells from the plate using a scraper and suspended in 0.1 M tris-HCl buffer (pH 7.5) containing 0.05 mM pepstatin A (Sigma, P5318), 0.2 mM leupeptin (Sigma, L2884), 1 mM phenylmethylsulfonyl fluoride (Nacalai Tesque, 273-27), 10 mM ethylenediaminetetraacetic acid disodium salt and 0.1% Triton X-100. A supernatant obtained by centrifuging the suspension after freezing and thawing was used as a protein fraction. The content of protein in the protein fraction was determined using Micro BCA Protein Assay Reagent (a product of Pierce sold by Takara Shuzo, P7411). A sample from the protein fraction prepared as described above was mixed with an equal volume of 0.125 M tris-hydrochloride buffer (pH 6.8) containing 4% sodium lauryl sulfate (SDS), 2% 2-mercaptoethanol, 0.001% Bromophenol Blue and 20% glycerol. After treatment at 100° C. for 5 minutes, a portion corresponding to 10 μg of protein was loaded on 12.5% SDS-polyacrylamide gel and electrophoresed at a constant current of 20 mA. After electrophoresis, the gel was transferred to a PVDF membrane (Millipore, IPVH000 10) at a constant voltage of 15 V for 25 minutes using a blotting buffer (containing 48 mM tris, 39 mM glycine, 20% methanol and 0.0375% SDS) and Trans-Blot SD Cell Semi-Dry blotting apparatus (Bio-Rad) according to the attached protocol. After transferring, the PVDF membrane was blocked in a solution of Block Ace (Dainippon Pharmaceutical, UK-B25) at 4 C overnight. After blocking, the membrane washed three times in phosphate buffered saline containing 0.1% Tween 20 for 15 minutes with gentle shaking. The membrane was reacted in phosphate buffered saline containing 10% Block Ace, 0.1% Tween 20 and 200 ng/ml of anti-heme oxygenase 1 antibody (N-19; Santa Cruz, sc-7696) at room temperature for 1 hour with gentle shaking, and then washed three times in phosphate buffered saline containing 0.1% Tween 20 for 15 minutes with gentle shaking. The membrane was reacted in phosphate buffered saline containing 10% Block Ace, 0.1% Tween 20 and 0.1% peroxidase-labeled rabbit anti-goat IgG (H+L) antibody (Zymed, 61-1620) at room temperature for 1 hour with gentle shaking, and then washed five times in phosphate buffered saline containing 0.1% Tween 20 for 15 minutes with gentle shaking. The PVDF membrane was stained using Western Blot Chemiluminescence Reagent Plus (a product of NEN Life Science Products sold by Daiichi Pure Chemicals, NEL103) according to the attached protocol and exposed to an X-ray film (Kodak, CAT165 1454). After exposure, the film was developed using FPM800 (Fuji Film).
The intensity of the band depended on the concentration of the sample. In the table, the intensity of the band for heme oxygenase 1 protein is expressed by the mark +. Specifically, − represents no band observed, and increase in the intensity of the band is represented as follows: +−<+<++.

| IC50 [1] [µM] | Structure (SMILES) | antiproliferation activity against HL-60 cells [1] | Intensity of band for heme oxygenase 1 protein ([2]; final concentration of 25 μM) | Intensity of band for heme oxygenase 1 protein ([2]; final concentration of 50 μM) | Intensity of band for heme oxygenase 1 protein ([2]; final concentration of 100 μM) |
| --- | --- | --- | --- | --- | --- |
| 104 | O=C[C@H](O)[C@H]1OC[C@@H](O)[C@@H]1OC(=O)c1ccccc1 [Compound (7), 4-O-benzoyl-3,6-anhydro-D-galactose] | exhibited antiproliferation activities | + | + | – |
| 113 | OCC1OC(OC2C(CO)OC(OC3C(CO)OC(OC4C(O)COC4C(O)C(O)O)C(O)C3O)C(O)C2O)C(O)C(O)C1O [Compound (14), 4-O-β-maltotoriosyl-3,6-anhydro-D-galactose] | exhibited antiproliferation activities | – | + | + + |
| 205 | O=C[C@H](O)[C@H]1OC[C@@H](O)[C@@H]1OCc1ccccc1 [Compound (17), 4-O-benzyl-3,6-anhydro-D-galactose] | exhibited antiproliferation activities | – | + | + + |
